Laboratory results from ChEMBL document CHEMBL5131410, “Design and discovery of C2-fluoroalkyl iminothiazine dioxides as BACE inhibitors” (Bioorg Med Chem Lett, 2022).

Tests used:
Rattus norvegicus [1] = test: Antialzheimer activity against in po dosed rat assessed as plasma concentration required to 50 % decrease in amyloid beta 40 in CSF measured after 3 hrs; type: functional, organism-based
Rhesus monkey [2] = test: Antialzheimer activity against in po dosed rhesus monkey assessed as decrease in amyloid beta 40 in CSF measured after 3 hrs; type: functional; details: Macaca mulatta
Rattus norvegicus [3] = test: Antialzheimer activity against in po dosed rat assessed as decrease in amyloid beta 40 in CSF measured after 3 hrs; type: functional
Rhesus monkey [4] = test: Antialzheimer activity against in po dosed rhesus monkey assessed as plasma concentration required to 50 % decrease in amyloid beta 40 in CSF measured after 3 hrs; type: functional, organism-based; details: Macaca mulatta
Beta-secretase 1 [5] = molecular target: T1, Beta-secretase 1 (Homo sapiens, UniProt P56817); test: Inhibition of BACE1 (unknown origin)
Beta-secretase 1 [6] = molecular target: T1, Beta-secretase 1; test: Inhibition of BACE1 (unknown origin) expressed in HEK293 cells expressing human APP with Swedish and London familial AD mutation; type: cell-based
Rattus norvegicus [7] = test: Antialzheimer activity against in rat assessed as decrease in amyloid beta 40 in CSF at 10 mg/kg, po and measured after 3 hrs relative to control; type: functional; design: scale not given: the % may be the effect or the level left
[8] = Lipophilicity, log D of compound at pH 7 by HPLC analysis; type: physicochemical; details: buffer
MDR1 (human) = test: Efflux ratio of apparent permeability across basolateral to apical membrane to apical to basolateral membrane in pig LLC-PK1 cells expressing human MDR1 at 1 uM; type: ADME, cell-based, Sus scrofa
[9] = Dissociation constant, pKa of compound by UV-metric spectrophotometric analysis; type: physicochemical
MDR1 (rat) = test: Efflux ratio of apparent permeability across basolateral to apical membrane to apical to basolateral membrane in pig LLC-PK1 cells expressing rat MDR1 at 1 uM; type: ADME, cell-based, Sus scrofa
[10] = molecular target: T2, Voltage-gated inwardly rectifying potassium channel KCNH2 (Homo sapiens, UniProt Q12809); test: Displacement of MK499 from human ERG expressed in HEK membrane by radio ligand binding competition assay; type: toxicity, cell membranes, Cell membrane
[11] = Apparent permeability in pig LLC-PK1 cells; type: ADME, cell-based, Sus scrofa
Renin = molecular target: T3, Renin (Homo sapiens, UniProt P00797); test: Inhibition of human renin
T3 sequence (P00797 whole entry): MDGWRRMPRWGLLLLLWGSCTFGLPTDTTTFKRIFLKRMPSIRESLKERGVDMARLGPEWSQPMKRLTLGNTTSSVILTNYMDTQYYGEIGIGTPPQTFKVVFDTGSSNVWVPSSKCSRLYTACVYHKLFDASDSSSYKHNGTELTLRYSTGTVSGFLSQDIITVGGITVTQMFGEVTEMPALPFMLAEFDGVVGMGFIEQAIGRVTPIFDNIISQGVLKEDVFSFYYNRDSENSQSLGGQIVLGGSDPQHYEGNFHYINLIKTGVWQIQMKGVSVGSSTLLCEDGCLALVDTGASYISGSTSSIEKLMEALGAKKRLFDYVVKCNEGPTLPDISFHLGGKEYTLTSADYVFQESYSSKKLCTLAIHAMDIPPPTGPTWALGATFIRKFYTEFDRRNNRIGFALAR

Cathepsin E = molecular target: T4, Cathepsin E (Homo sapiens, UniProt P14091); test: Inhibition of human cathepsin E
T4 sequence (P14091 whole entry): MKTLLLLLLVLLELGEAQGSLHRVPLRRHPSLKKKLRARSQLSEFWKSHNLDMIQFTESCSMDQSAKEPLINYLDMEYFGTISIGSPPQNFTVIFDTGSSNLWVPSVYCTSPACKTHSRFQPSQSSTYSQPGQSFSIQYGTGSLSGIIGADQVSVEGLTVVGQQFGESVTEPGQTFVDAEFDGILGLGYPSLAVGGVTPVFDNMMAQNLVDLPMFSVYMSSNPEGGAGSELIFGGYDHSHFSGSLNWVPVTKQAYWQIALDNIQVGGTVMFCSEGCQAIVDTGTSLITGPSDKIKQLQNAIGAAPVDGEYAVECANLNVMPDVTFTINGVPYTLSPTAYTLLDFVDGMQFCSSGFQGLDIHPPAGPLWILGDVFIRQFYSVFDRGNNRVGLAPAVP

[12] = molecular target: Voltage-dependent L-type calcium channel subunit alpha-1C (Homo sapiens, UniProt Q13936); test: Inhibition of CAV1.2 (unknown origin)
[13] = molecular target: Sodium channel protein type 2 subunit alpha (Homo sapiens, UniProt Q99250); test: Inhibition of NaV1.2 (unknown origin)
Cathepsin D = Cathepsin D (Homo sapiens, UniProt P07339); test: Inhibition of human cathepsin D
[14] = Drug concentration in rat plasma at 10 mg/kg, po after 3 hrs; type: ADME, organism-based
[15] = Drug concentration in rat CSF at 10 mg/kg, po after 3 hrs; type: ADME, organism-based, Cerebrospinal fluid; details: read-out: Ct
[16] = Free drug concentration in cynomolgus monkey plasma; type: ADME, cell-free, Macaca fascicularis
[17] = molecular target: T2, Voltage-gated inwardly rectifying potassium channel KCNH2; test: Inhibition of human ERG expressed in HEK cells by voltage clamp assay; type: toxicity, cell-based
[18] = Free drug concentration in rat plasma; type: ADME, cell-free
[19] = Free drug concentration in human plasma; type: ADME, cell-free
[20] = Ratio of drug level in brain to plasma in rat; type: ADME; details: read-out: BPR

T2 sequence (Q12809 whole entry): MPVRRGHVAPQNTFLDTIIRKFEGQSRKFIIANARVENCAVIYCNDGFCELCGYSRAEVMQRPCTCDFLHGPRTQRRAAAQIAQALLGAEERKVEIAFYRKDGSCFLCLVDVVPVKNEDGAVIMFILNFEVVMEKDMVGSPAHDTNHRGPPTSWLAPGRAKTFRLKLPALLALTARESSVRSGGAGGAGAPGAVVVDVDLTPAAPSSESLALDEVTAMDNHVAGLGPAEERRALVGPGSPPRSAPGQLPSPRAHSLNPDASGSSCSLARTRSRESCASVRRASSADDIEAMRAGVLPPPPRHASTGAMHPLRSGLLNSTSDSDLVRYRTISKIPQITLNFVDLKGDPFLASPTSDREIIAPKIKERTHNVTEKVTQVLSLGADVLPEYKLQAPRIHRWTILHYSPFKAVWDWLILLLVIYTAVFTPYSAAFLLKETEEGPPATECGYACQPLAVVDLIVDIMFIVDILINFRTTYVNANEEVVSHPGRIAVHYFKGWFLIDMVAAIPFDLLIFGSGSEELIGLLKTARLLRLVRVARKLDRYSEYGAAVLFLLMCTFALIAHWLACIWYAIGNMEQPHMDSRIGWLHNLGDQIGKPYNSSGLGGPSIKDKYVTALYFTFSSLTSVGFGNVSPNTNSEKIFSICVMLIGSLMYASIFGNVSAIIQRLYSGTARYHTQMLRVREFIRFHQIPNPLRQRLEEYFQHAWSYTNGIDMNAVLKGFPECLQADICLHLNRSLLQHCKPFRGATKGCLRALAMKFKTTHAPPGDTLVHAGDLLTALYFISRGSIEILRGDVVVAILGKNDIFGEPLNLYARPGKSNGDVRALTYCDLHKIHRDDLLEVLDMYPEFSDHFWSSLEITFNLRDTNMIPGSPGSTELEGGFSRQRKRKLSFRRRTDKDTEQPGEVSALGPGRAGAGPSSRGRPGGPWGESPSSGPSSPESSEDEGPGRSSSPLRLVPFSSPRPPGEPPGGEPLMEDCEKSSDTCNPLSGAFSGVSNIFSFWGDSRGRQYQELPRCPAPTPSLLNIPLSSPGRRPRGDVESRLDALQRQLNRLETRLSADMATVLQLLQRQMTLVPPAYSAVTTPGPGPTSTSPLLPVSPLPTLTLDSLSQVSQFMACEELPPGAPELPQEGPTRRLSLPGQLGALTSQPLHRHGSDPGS
T1 sequence (P56817 whole entry): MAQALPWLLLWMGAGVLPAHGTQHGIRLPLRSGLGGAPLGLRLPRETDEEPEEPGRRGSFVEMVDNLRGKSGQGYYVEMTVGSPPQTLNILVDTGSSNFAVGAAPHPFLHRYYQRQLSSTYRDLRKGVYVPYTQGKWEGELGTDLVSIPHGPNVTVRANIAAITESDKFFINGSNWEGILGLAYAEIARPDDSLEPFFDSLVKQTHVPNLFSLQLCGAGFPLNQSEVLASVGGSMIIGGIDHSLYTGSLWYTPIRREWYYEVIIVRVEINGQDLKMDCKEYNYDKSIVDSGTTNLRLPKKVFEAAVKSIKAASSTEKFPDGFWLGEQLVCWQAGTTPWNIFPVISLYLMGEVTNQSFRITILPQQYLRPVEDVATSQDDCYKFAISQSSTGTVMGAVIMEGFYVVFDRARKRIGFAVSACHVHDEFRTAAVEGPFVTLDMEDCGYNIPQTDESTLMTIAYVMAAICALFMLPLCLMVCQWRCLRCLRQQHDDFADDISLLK
Sodium channel protein type 2 subunit alpha, sequence (Q99250 whole entry): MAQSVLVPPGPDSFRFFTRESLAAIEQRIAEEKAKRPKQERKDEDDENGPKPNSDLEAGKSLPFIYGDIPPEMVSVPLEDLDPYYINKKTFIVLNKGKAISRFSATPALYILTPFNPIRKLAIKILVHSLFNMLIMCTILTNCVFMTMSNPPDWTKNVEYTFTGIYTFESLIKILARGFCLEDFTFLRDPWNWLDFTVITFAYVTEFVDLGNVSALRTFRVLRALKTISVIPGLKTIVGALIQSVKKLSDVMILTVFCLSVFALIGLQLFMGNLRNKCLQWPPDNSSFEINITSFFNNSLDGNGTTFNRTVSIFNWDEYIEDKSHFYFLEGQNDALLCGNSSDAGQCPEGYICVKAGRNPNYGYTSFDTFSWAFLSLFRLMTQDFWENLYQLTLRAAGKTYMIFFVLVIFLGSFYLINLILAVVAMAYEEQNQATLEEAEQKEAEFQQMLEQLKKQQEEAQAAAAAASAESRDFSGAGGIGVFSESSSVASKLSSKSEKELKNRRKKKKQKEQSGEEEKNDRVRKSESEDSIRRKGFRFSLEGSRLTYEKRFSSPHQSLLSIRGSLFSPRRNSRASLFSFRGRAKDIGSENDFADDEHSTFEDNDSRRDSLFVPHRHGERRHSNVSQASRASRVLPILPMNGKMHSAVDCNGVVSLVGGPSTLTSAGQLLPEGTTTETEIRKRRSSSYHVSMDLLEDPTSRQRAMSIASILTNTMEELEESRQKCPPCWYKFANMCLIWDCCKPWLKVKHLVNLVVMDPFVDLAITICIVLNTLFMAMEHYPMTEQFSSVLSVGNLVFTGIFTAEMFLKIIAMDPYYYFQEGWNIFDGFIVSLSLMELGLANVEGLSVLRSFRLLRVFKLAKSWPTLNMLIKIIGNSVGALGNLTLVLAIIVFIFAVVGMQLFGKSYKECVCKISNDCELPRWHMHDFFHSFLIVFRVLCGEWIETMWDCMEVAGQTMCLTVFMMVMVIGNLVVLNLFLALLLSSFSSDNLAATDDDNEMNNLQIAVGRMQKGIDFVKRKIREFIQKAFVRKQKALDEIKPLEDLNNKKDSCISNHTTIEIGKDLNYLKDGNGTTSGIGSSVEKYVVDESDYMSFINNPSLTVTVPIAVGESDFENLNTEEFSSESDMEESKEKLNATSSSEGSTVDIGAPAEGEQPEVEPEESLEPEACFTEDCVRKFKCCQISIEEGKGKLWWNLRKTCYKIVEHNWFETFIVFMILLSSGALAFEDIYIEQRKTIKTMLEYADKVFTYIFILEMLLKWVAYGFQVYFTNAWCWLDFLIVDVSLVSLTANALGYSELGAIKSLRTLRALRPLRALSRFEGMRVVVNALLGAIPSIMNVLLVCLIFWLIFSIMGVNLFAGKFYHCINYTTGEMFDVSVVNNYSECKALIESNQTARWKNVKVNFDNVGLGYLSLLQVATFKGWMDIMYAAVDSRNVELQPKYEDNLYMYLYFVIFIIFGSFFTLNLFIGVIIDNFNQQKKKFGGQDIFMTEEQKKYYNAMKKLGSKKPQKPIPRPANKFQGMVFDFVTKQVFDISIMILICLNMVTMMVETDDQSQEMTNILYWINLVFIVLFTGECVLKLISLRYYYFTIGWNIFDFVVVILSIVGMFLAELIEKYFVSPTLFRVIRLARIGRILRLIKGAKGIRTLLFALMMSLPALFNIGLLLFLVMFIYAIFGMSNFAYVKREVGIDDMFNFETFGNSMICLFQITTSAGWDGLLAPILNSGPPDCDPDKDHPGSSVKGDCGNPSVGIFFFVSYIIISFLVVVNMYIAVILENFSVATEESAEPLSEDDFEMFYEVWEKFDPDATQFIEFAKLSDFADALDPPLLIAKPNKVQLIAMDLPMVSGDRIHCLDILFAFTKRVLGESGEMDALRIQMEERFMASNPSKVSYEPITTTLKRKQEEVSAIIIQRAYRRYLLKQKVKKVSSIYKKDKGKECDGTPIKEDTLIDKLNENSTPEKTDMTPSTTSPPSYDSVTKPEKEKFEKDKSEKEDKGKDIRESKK
Cathepsin D, sequence (P07339 65-162 limits assumed): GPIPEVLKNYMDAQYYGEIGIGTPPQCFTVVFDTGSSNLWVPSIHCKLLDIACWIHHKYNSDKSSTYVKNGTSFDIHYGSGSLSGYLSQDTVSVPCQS
Cathepsin D, sequence (P07339 169-412 limits assumed): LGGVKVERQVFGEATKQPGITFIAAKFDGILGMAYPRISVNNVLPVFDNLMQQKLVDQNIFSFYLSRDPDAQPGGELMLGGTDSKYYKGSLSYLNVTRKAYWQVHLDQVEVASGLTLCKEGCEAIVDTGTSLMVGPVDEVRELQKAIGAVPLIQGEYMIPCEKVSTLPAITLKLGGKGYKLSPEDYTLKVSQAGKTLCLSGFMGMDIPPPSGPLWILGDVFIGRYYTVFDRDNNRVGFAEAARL

## COc1cnc(C(=O)Nc2ccc(F)c([C@]3(C)CS(=O)(=O)C(C)(C)C(N)=N3)c2)cn1
Rattus norvegicus [1]
  EC50: 15 nM
Rhesus monkey [2]
  ED50: 0.3 mg/kg
Rattus norvegicus [3]
  ED50: 1.2 mg/kg
Rhesus monkey [4]
  EC50: 23 nM

## COc1cnc(C(=O)Nc2ccc(F)c([C@]3(C)CS(=O)(=O)[C@](C)(C(F)F)C(=N)N3)c2)cn1
Beta-secretase 1 [5]
  Ki: 12 nM
Beta-secretase 1 [6]
  IC50: 171 nM

## C[C@@]1(c2nc(NC(=O)c3ccc(C#N)cn3)ccc2F)CS(=O)(=O)[C@](C)(CF)C(=N)N1
Beta-secretase 1 [5]
  Ki: 3 nM
Beta-secretase 1 [6]
  IC50: 7 nM

## CC1(C)C(=N)N[C@](C)(c2nc(NC(=O)c3ccc(C#N)cn3)ccc2F)CS1(=O)=O
Rattus norvegicus [7]
  Activity: 88%

## Cc1cc(C#N)cnc1C(=O)Nc1ccc(F)c([C@]2(C)CS(=O)(=O)[C@@](C)(CF)C(=N)N2)n1
Rattus norvegicus [7]
  Activity: 92%
Beta-secretase 1 [5]
  Ki: 1 nM
Beta-secretase 1 [6]
  IC50: 1 nM

## C[C@]1(CF)C(=N)N[C@](C)(c2nc(NC(=O)c3ccc(C#N)cn3)ccc2F)CS1(=O)=O
Beta-secretase 1 [5]
  Ki: 2 nM
Beta-secretase 1 [6]
  IC50: 3 nM

## Cc1cc(C#N)cnc1C(=O)Nc1ccc(F)c([C@]2(C)CS(=O)(=O)[C@](C)(C(F)F)C(=N)N2)n1
Rattus norvegicus [7]
  Activity: 80%
Beta-secretase 1 [5]
  Ki: 3 nM
Beta-secretase 1 [6]
  IC50: 11 nM

## COc1cnc(C(=O)Nc2ccc(F)c([C@]3(C)CS(=O)(=O)[C@](C)(CF)C(=N)N3)c2)cn1
Beta-secretase 1 [5]
  Ki: 4 nM
Beta-secretase 1 [6]
  IC50: 14 nM

## C[C@@]1(C(F)F)C(=N)N[C@](C)(c2nc(NC(=O)c3ccc(C#N)cn3)ccc2F)CS1(=O)=O
[8]
  logD: 2.5
Beta-secretase 1 [5]
  Ki: 10 nM
MDR1 (human)
  efflux ratio at 1 µM: 0.8
[9]
  pKa: 5.95
MDR1 (rat)
  efflux ratio at 1 µM: 3.7
[10]
  IC50: 24200 nM
Beta-secretase 1 [6]
  IC50: 78 nM
[11]
  Papp: 32.7 ×10⁻⁶ cm/s

## Cc1cc(C#N)cnc1C(=O)Nc1ccc(F)c([C@]2(C)CS(=O)(=O)[C@@](C)(C(F)F)C(=N)N2)n1
Rattus norvegicus [1]
  EC50: 130 nM
Renin
  Ki: > 19100 nM
Cathepsin E
  Ki: > 30500 nM
[12]
  IC50: 7060 nM
Rattus norvegicus [7]
  Activity: 91%
Rhesus monkey [2]
  ED50: < 3 mg/kg
[13]
  IC50: > 30000 nM
Rattus norvegicus [3]
  ED50: 3 mg/kg
Beta-secretase 1 [5]
  Ki: 1 nM
Cathepsin D
  Ki: 5880 nM
Rhesus monkey [4]
  EC50: 20 nM
Beta-secretase 1 [6]
  IC50: 3 nM

## Cc1cc(C#N)cnc1C(=O)Nc1ccc(F)c([C@]2(C)CS(=O)(=O)[C@](C)(CF)C(=N)N2)n1
Rattus norvegicus [7]
  Activity: 68%
Beta-secretase 1 [5]
  Ki: 2 nM
Beta-secretase 1 [6]
  IC50: 2 nM

## COc1cnc(C(=O)Nc2ccc(F)c([C@]3(C)CS(=O)(=O)[C@@](C)(C(F)F)C(=N)N3)c2)cn1
Beta-secretase 1 [5]
  Ki: 3 nM
Beta-secretase 1 [6]
  IC50: 30 nM

## C[C@@]1(c2nc(NC(=O)c3ccc(C#N)cn3)ccc2F)CS(=O)(=O)[C@@](C)(C(F)F)C(=N)N1
[8]
  logD: 2.3
Rattus norvegicus [7]
  Activity: 80%
Beta-secretase 1 [5]
  Ki: 3 nM
MDR1 (human)
  efflux ratio at 1 µM: 1
[14]
  concentration at 3 h: 154 nM
[15]
  concentration at 3 h: 8 nM
[9]
  pKa: 6.19
MDR1 (rat)
  efflux ratio at 1 µM: 8.6
[10]
  IC50: 2420 nM
Beta-secretase 1 [6]
  IC50: 11 nM
[11]
  Papp: 28.6 ×10⁻⁶ cm/s

## COc1cnc(C(=O)Nc2ccc(F)c([C@]3(C)CS(=O)(=O)[C@@](C)(CF)C(=N)N3)c2)cn1
Beta-secretase 1 [5]
  Ki: 5 nM
Beta-secretase 1 [6]
  IC50: 12 nM

## CN1C(N)=N[C@](C)(c2cc(NC(=O)c3ccc(F)cn3)ccc2F)CS1(=O)=O [VERUBECESTAT]
Rattus norvegicus [1]
  EC50: 110 nM
[16]
  fraction unbound: 0.18
Rhesus monkey [2]
  ED50: < 3 mg/kg
Rattus norvegicus [3]
  ED50: 0.69 mg/kg
[17]
  IC50: 2200 nM
Rhesus monkey [4]
  EC50: 41 nM
[9]
  pKa: 7.5
[18]
  fraction unbound: 0.21
[19]
  fraction unbound: 0.24
[20]
  Kp: 0.23
[11]
  Papp: 23 ×10⁻⁶ cm/s
